Reference: ChEMBL document CHEMBL3797106, “Potent and Selective Agonists of Sphingosine 1-Phosphate 1 (S1P1): Discovery and SAR of a Novel Isoxazole Based Series” (J Med Chem, 2016)
Activity calls are given as the source filed them. The calls are words filed in the database; no cut-off is given here.

Assays:
[1] = biological target: Sphingosine 1-phosphate receptor 1 (Homo sapiens, UniProt P21453); assay: Agonist activity at human S1P1 receptor expressed in CHO cell membranes after 45 mins by [35S]-GTPgammaS binding assay; assay type: functional
[2] = biological target: Sphingosine 1-phosphate receptor 3 (Homo sapiens, UniProt Q99500); assay: Agonist activity at human S1P3 receptor expressed in EDG3-Ga15-bla HEK293T cell membranes after 45 mins by [35S]-GTPgammaS binding assay; assay type: functional, HEK-293T
[3] = organism: Homo sapiens; assay: Selectivity ratio of EC50 for human S1P3 receptor to EC50 for human S1P1 receptor
[4] = system: Rattus norvegicus; assay: Reduction of blood lymphocyte level in Lewis rat at 1 mg/kg, po measured at 4 hrs by hematology analyzer relative to vehicle-treated control; assay type: functional; set-up: scale not given: the % may be the effect or the level left
[5] = Plasma concentration in Lewis rat at 1 mg/kg, po measured at 4 hrs; assay type: ADME, organism-based
[6] = system: Rattus norvegicus; assay: Reduction of blood lymphocyte level in Lewis rat at 1 mg/kg, po measured at 24 hrs by hematology analyzer relative to vehicle-treated control; assay type: functional; set-up: scale not given: the % may be the effect or the level left
[7] = Plasma concentration in Lewis rat at 1 mg/kg, po measured at 24 hrs; assay type: ADME, organism-based
[8] = system: Plasma; assay: Ratio drug level in Lewis rat plasma at 1 mg/kg, po at 4 hrs to drug level in Lewis rat plasma at 1 mg/kg, po at 24 hrs; assay type: ADME, organism-based; details: in vivo
[9] = system: Mus musculus; assay: Reduction in clinical score in C57BL/6 mouse experimental autoimmune encephalomyelitis model of multiple sclerosis at 1 mg/kg, po qd for 24 days started from day of immunization measured 3 times per week of compound dosing; assay type: functional, organism-based

Sequence of Sphingosine 1-phosphate receptor 3 (Q99500 whole entry): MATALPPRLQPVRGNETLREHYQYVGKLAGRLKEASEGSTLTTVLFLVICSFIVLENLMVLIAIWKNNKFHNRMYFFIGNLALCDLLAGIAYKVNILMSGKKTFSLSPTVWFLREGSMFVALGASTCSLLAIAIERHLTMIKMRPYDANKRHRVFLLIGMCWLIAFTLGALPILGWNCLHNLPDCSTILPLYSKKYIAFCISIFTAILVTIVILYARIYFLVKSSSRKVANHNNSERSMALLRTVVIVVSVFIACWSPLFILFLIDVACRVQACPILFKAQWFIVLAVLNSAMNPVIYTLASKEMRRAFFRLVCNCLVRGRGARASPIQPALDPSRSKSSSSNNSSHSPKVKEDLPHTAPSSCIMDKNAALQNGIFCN
Sequence of Sphingosine 1-phosphate receptor 1 (P21453 whole entry): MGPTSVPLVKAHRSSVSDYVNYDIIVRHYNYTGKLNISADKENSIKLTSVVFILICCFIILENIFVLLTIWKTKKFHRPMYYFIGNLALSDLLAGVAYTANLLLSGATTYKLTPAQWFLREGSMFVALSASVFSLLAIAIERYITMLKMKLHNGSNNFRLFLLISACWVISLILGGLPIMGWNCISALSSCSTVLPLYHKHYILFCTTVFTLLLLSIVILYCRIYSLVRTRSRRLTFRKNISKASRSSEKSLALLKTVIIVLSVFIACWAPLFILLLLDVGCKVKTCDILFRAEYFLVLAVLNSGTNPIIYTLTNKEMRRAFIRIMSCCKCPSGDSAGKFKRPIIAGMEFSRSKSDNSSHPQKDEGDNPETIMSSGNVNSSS

Compound	EC50 [1]	EC50 [2]	Ratio EC50 [3]	Activity [4]	concentration at 4 h [5]	Activity [6]	concentration at 24 h [7]	Ratio [8]	Activity [9]
CC(F)(F)c1c(-c2nc(-c3ccc(CN4CC(C(=O)O)C4)cc3)no2)noc1-c1ccccc1	0.54 nM	1900 nM	3500	81%	1400 nM	82%	100 nM	14	–
CCCc1c(-c2nc(-c3ccc(CN4CC(C(=O)O)C4)cc3)no2)noc1-c1ccccc1	0.44 nM	1300 nM	2900	85%	250 nM	60%	7.9 nM	31	–
CC(C)c1c(-c2nc(-c3ccc(CN4CC(C(=O)O)C4)cc3)no2)noc1-c1ccccc1	1.3 nM	5100 nM	4000	–	–	–	–	–	–
CCCCCCCCc1ccc(CCC(N)(CO)CO)cc1	–	–	–	–	–	–	–	–	Active
CC(C)(C)c1c(-c2nc(-c3ccc(CN4CC(C(=O)O)C4)cc3)no2)noc1-c1ccccc1	5.3 nM	2600 nM	500	73%	520 nM	52%	55 nM	9	–
O=C(O)C1CN(Cc2ccc(-c3noc(-c4noc(-c5ccccc5)c4C4CC4)n3)cc2)C1	3.2 nM	1800 nM	540	–	–	–	–	–	–
CCCc1c(-c2ccccc2)noc1-c1nc(-c2ccc(CN3CC(C(=O)O)C3)cc2)no1	0.44 nM	1000 nM	2300	85%	170 nM	82%	11 nM	15	–
Cc1c(-c2nc(-c3ccc(CN4CC(C(=O)O)C4)cc3)no2)noc1-c1ccccc1	5 nM	> 31 nM	> 6300	68%	260 nM	0%	6.4 nM	41	–
O=C(O)C1CN(Cc2ccc(-c3noc(-c4cc(-c5ccccc5)no4)n3)cc2)C1	25 nM	–	–	–	–	–	–	–	–
Cc1c(-c2ccccc2)noc1-c1nc(-c2ccc(CN3CC(C(=O)O)C3)cc2)no1	1.7 nM	9200 nM	5500	–	–	–	–	–	–
CC(C)Cc1onc(-c2nc(-c3ccc(CN4CC(C(=O)O)C4)cc3)no2)c1C(F)(F)F	0.39 nM	6200 nM	16000	88%	1600 nM	83%	280 nM	6	–
CCCc1c(-c2nc(-c3ccc(CN4CC(C(=O)O)C4)cc3)no2)noc1CC(C)C	0.3 nM	850 nM	2900	86%	1300 nM	78%	41 nM	33	–
CC(C)Cc1c(-c2nc(-c3ccc(CN4CC(C(=O)O)C4)cc3)no2)noc1-c1ccccc1	0.56 nM	730 nM	1300	80%	190 nM	82%	30 nM	6	–
O=C(O)C1CN(Cc2ccc(-c3noc(-c4noc(-c5ccccc5)c4C(F)(F)F)n3)cc2)C1	0.98 nM	4100 nM	4100	84%	1100 nM	85%	180 nM	6	–
O=C(O)C1CN(Cc2ccc(-c3noc(-c4cc(-c5ccccc5)on4)n3)cc2)C1	44 nM	6300 nM	150	22%	140 nM	0%	–	–	–
O=C(O)C1CN(Cc2ccc(-c3noc(-c4noc(-c5ccccc5)c4-c4ccccc4)n3)cc2)C1	0.99 nM	130 nM	130	–	–	–	–	–	–
CCCCc1c(-c2nc(-c3ccc(CN4CC(C(=O)O)C4)cc3)no2)noc1-c1ccccc1	–	–	–	82%	81 nM	60%	5 nM	16	–
CCc1c(-c2nc(-c3ccc(CN4CC(C(=O)O)C4)cc3)no2)noc1-c1ccccc1	1.6 nM	12000 nM	7500	76%	320 nM	52%	29 nM	11	–
